In US11136297B2, “Compositions and methods for treating cancer” (THE REGENTS OF THE UNIVERSITY OF CALIFORNIA, priority 2016, dated 2021):

Tests used:
[1] = target: T1, H-Ras(M72C) bound to either GDP or GppNHp (Homo sapiens, UniProt P01112, M72C); test: Electrophile labeling experiments (percent modification by whole protein LC/MS); type: binding
T1 construct: Labeling studies were conducted using the 1-166 H-Ras(M72C) construct containing all endogenous cysteines; His6; made in house; host or cells: Escherichia coli BL21(DE3)
Procedure: Electrophile Labeling Experiments.
Each reaction was analyzed in a 96 well plate format for analysis by LC/MS. Total reaction volumes were 25 μL for single time point labeling experiments and 200 uL for full 24-hour time courses. 25 μL reactions were made in the wells of a V-bottom 96 well plate and 200 uL reactions were made in 1.25 mL eppendorf tubes. All labeling reactions were conducted in Gel Filtration Buffer (20 mM HEPES (pH 7.5), 150 mM NaCl) with no added reductant at room temperature. […] Electrophile stocks were made in DMSO at 10 mM, aliquoted, and frozen. Labeling reactions were started by the addition of the desired volume of 10 mM electrophile stock and mixed thoroughly by pipette. General screening of new electrophiles was done at 100 μM electrophile in triplicate and sampled as a single time point after 24 hours of incubation. For Compound 3, labeling time courses were conducted at 20 μM compound with sampling done every 2 hours for the first 10 hours of incubation and continued after overnight incubation until the protein was fully modified. Reactions were allowed to sit at room temperature in the dark (either covered in aluminum foil or in a bench drawer) until the desired time point was reached. For 24-hour single point labeling experiments, the reaction was directly sampled from the 96 well plate and analyzed by LC/MS. For experiments with multiple time points, 22.5 μL aliquots of the 200 μL master reaction were sampled and quenched by the addition of 2.5 μL of 2% formic acid (also made in Gel Filtration Buffer). This 25 μL quenched sample was then analyzed by LC/MS and the remaining master reaction was allowed to continue reacting after gentle mixing by pipette. The percent modification was analyzed by electrospray mass spectrometry using a Waters Acquity UPLC/ESI-TQD with a 2.1×50 mm Acquity UPLC BEH300 C4 column.

[2] = target: T2, p110d/p85a (PI3K-d) activation by H-Ras-GTP (Homo sapiens, UniProt P01112, C118S/G12V/M72C); test: PI3K lipid kinase assay with membrane-coupled H-Ras (Transcreener ADP2 FI); type: biochemical; settings: with pY phosphopeptide; H-Ras(G12V) alone gave 20-fold
T2 construct: Plasmids expressing 1-181 H-Ras(G12V/C118S) and H-Ras(G12V/M72C/C118S); His tag (purified on HisTrap, TEV-cleavable) (cleaved yes); made in house; host or cells: Escherichia coli BL21 DE3 (H-Ras)
Procedure: Purification and Modification of H-Ras Constructs for Lipid Kinase Assays. Plasmids expressing 1-181 H-Ras(G12V/C118S) and H-Ras(G12V/M72C/C118S) were transformed into BL21 DE3 and the culture was induced at OD 0.6-0.9 with […] IPTG. The cultures were then allowed to grow for 4 h at 37° C. after which the cells were pelleted and stored at −80° C. Frozen pellets were re-suspended in lysis buffer and lysed by sonication (10s ON; 10s OFF; Power-6.0). Triton-X was added to a final concentration of 0.1% and lysate was centrifuged at 20,000 g for 45 minutes (Beckman Coulter Avanti J-251, JA 25.50 rotor). The supernatant was loaded on a 5 mL HisTrapTm FF column (GE Healthcare) equilibrated with buffer containing 10 mM imidazole pH 8.0 (NiNTA A). Following washes with 20 mL NiNTA A and 20 mL of 6% buffer containing 200 mM imidazole pH 8.0 (NiNTA B), the protein was eluted in 100% NiNTA B. The elution was buffer exchanged with NiNTA A buffer in a 10,000 MWCO Amicon concentrator (Millipore). The sample was concentrated down to <2 mL and TEV protease was added to −0.3 mg/mL. The cleavage was allowed to proceed overnight at 4° C. To de-enrich the TEV protease, the protein solution was loaded onto a HisTrapTm FF column and eluted with 10 mL of NiNTA A buffer. The elution was concentrated to −2 mL. […]

[3] = target: T3, 1-181 H-Ras(G12V/M72C/C118S) (Homo sapiens, UniProt P01112, C118S/G12V/M72C); test: Coupling of Compound 3 to H-Ras M72C construct for lipid kinase assays; type: binding; settings: M72C construct with 200-250 Compound 3, 72 hours, 4° C.
T3 construct: Plasmids expressing 1-181 H-Ras(G12V/C118S) and H-Ras(G12V/M72C/C118S); His tag (purified on HisTrap, TEV-cleavable) (cleaved yes); made in house; host or cells: Escherichia coli BL21 DE3
Procedure: Coupling to inhibitor was done in a reaction containing […], 100 mM TCEP, 1 mM MgCl2 and […] Compound 3. DMSO was adjusted to a final concentration of 5%. After 24 hours, more inhibitor was added to a total final concentration of […]. The coupling was allowed to proceed for −72 hours at 4° C. Coupling efficiency was −70%. The coupled protein was exchanged with gel filtration buffer and loaded with GTPgS in the same manner as the H-Ras(G12V) construct. The protein was then run on a Superdex™ 75 10/300 GL size-exclusion column (GE Healthcare) equilibrated in Ras gel filtration buffer to remove excess nucleotide.

C=CC(=O)Nc1cc(Cl)cc(NC(=O)c2cnn(-c3ccc(OC)cc3)c2C(F)(F)F)c1 [Compound 3, N-(3-acrylamido-5-chlorophenyl)-1-(4-methoxyphenyl)-5-(trifluoromethyl)-1H-pyrazole-4-carboxamide]
Percent modification (labeling of Cys 72) ([1]; 4 μM H-Ras(M72C) GDP or GppNHp, 100 μM electrophile, 24 hours): improved covalent binding | labeling of the GDP state ([1]; H-Ras(M72C) GDP, 20 μM electrophile (1:5 Ras to Compound 3), time course): rapidly and fully labels the GDP state | modification of the GppNHp state ([1]; H-Ras(M72C) GppNHp, 20 μM electrophile (1:5 Ras to Compound 3)): 88.7% | activation of PI3K-d activity by H-Ras(G12V/M72C) bound to compound [2]: ~3 fold | Coupling efficiency [3]: 70%
